Data set [1] deals with patient-derived organoids (PDOs). Nature of the data set: Patient-derived organoid CellTiter-Glo cell viability. Type of data set: cell-based, human. How it is done: Patient-derived organoids (PDOs). Tumor tissues were minced on ice into 1 mm^3 small pieces. Tumor pieces (˜20 μl in volume) were resuspended in 200 μl Matrigel and seeded into 24 well plates for 15 min until gel solidify, followed by culture in advanced DMEM/F12 medium supplemented with B27 and N2 (Thermo Fisher Scientific), 0.01% BSA (Roche), 100 units/m penicillin-streptomycin (Thermo Fisher Scientific), and others (Table 4) for 4-8 weeks to grow organoids. […] The CellTiter-Glo Luminescent Cell Viability assay was used to determine drug responsiveness.
(ATP-based viability assays read luminescence as a measure of living cells.)

Data set [2] concerns A549 cells. Nature of the data set: Proliferation assay (IncuCyte ZOOM), A549. Type of data set: cell-based. To be noted: Homo sapiens, read-out: IC50 from proliferation curves. As for the experimental part: (§1) Analysis was performed using IncuCyte ZOOM (Essen BioScience) with images acquired every 3 hr for up to 72 hr. Four images (proliferation) and one image (wound healing) were captured per well for each time point. Data were normalized to controls, and values for 50% effective concentration were calculated using Prism V7.0 (GraphPad software, San Diego, Calif.).
In vitro phenotypic assay. […] Proliferation and migration curves were generated using IncuCyte ZOOM (Essen BioScience) with images acquired every 3 hr over a 72 hr timeframe. Images were captured per well for each time point. Data were normalized to controls, and values for 50% inhibitory concentration were calculated using Prism V8.0 (GraphPad software).

The subject of data set [3] is PMA-stimulated U937 macrophages cocultured with A549 or H2009. Nature of the data set: U937 coculture with lung cancer cells, CyTOF. Type of data set: cell-based, human. The text has this: Materials and methods. U937 coculture with lung cancer cells. […] The cells were harvested and fixed to process CyTOF staining. Antibodies were conjugated in-house according to the manufacturer's instructions or purchased in pre-conjugated forms from the supplier (Fluidigm). Single cells from cell lines were harvested and stained with cisplatin and metal-conjugated surface antibodies sequentially for viability and surface staining. After fixation and permeabilization, cells were stained with metal-conjugated antibodies. The cells were then labeled with an iridium-containing DNA intercalator (191Ir+ or 193Ir+) for identification of cell events before analysis on a Helios mass cytometer. Signals were bead-normalized using EQ Four Element Calibration Beads.
Signals of samples were normalized using CyTOF software (Version 6.7.1014, Fluidigm). The generated files underwent signal cleanup and filtering for single cells using Cytobank (https://www.cytobank.org/). Macrophage population was gated out based on CD45 expression to generate Flow Cytometry Standard (FCS) file. The gated FCS file were downloaded for further analysis using Cytofkit. The PhenoGraph clustering algorithm in Cytofkit was implemented in R from the Bioconductor website (https://bioconductor.org/packages/cytofkit/). CyTOF data of macrophage were clustered and visualized using t-distributed stochastic neighbor embedding (t-SNE) algorithm based on normalized expression levels (Z-score) of 4 markers (CD14, CD16, CD163 and CD86).

Another data set relates to A549 and H2009 cells. Nature of the data set: Western blot analysis. Type of data set: cell-based, human. As to conditions: H2009, traditional western blot (FIG. 8C). How it is done:
Western blot analysis. […] Cell lysates were harvested using RIPA buffer. The concentration of protein lysates was determined by Pierce™ BCA Protein Assay Kit (Thermo fisher). Forty micrograms of the total protein extracts were separated by NuPAGE™ 4-12% Bis-Tris Protein Gels (Thermo fisher) and transferred to PVDF membrane. The membrane was then blocked with 5% of Blotting-Grade Blocker (BioRad) in TBST and probed using primary antibodies including: 1) oncogenic pathways: JAK1, pSTAT3, STAT3, pAKT and pERK1/2 (Cell Signaling Technology; 3344S, 9131S, 9139T, 4060, 4377S); 2) cancer stemness markers: CD133 and ALDH1A1 (Cell Signaling Technology; 64326S and 54135S); and 3) EMT markers: Vimentin (Novus; NBP1-92687), N-cadherin, EpCAM (Abcam; ab71916) and CK8/18 (Novus; NBP2-44930); 4) loading control: GAPDH (Cell Signaling Technology; 2118S). Membrane was incubated in HRP-linked secondary antibodies following dilution with TBST (1:5000) at room temperature for one hour. Blots were developed using Western Lightning Plus-ECL Chemiluminescent Reagents (Perkin Elmer, Waltham, Mass.) and Syngene G:BOX Imaging System.

In data set [4] the test system is patients with advanced tumors. As to conditions: early results, ref [21]; cited from earlier work.
In another data set the test system is H226 cells. Description: Proliferation assay (IncuCyte ZOOM), H226. Type of data set: cell-based. To be noted: Homo sapiens, NCI-H226; H226 squamous cell cancer line; read-out: IC50 from proliferation curves. How it is done:
as §1

Data set [5] deals with A549 cells. Nature of the data set: RNA-seq of TP-0903-treated A549 cells. As to conditions: A549, 40 nmol/L. Type of data set: cell-based, human. As for the experimental part: RNA-seq. Total RNA was extracted from TP-0903-treated and AXL-knockdown A549 cells and from respective controls in two biological replicates by using the PureLink RNA Mini Kit (Thermo Fisher Scientific). Sequencing of cDNAs was performed with Illumina HiSeq3000 as per manufacturer's instructions. Paired-end FASTQ files were generated and aligned with the human reference genome GRCh38 by using STAR alignment software. RSEM was applied to quantify gene expression levels, and fragments per kilobase of transcript per million (FPKM) mapped reads were calculated. The different expression levels of genes were compared between control and treatment groups by using RSEM software. […] Both gene sets were used to perform pathway enrichment analysis on Gene Ontology Consortium (http://geneontology.org/) by using Reactome pathway databases in PANTHER [45, 46]. Significant pathways were further analyzed with gene sets downloaded from the Molecular Signatures Database v6.2 (http://software.broadinstitute.org/gsea/msigdb/). Fold changes of candidate genes were calculated on the basis of log FPKM values and used to generate heat maps.
RNA-seq. […] The RSEM software was applied to quantify expression levels, and fragments per kilo base of transcript per million (FPKM) mapped reads were calculated. […]

Consider `CN1CCN(Cc2ccc(Nc3ncc(Cl)c(Nc4ccccc4S(=O)(=O)N(C)C)n3)cc2)CC1` [TP-0903], for which, in data set [1] (PDOs from tumors with high AXL and JAK1), the PDO sensitivity result is “sensitive”. The “PDO response (cell viability)” value in data set [1] (PDOs of Pt 008 and 010 (Category I/II), TP-0903 20 nmol/L or ruxolitinib 15 μmol/L, 72 hr) was “did not respond robustly”. Besides, the IC50 was found to be 31.6 nM in the data set on A549 cells [2] and 12.9 nM in the data set with H226 cells. In addition, the “high CD163 subpopulations” value in data set [3] (20, 40 and 80 nmol/L, increasing concentration) is on record as “decreased”. Besides, the “CD14high/CD16+/CD163high/CD86high macrophage subtype proportion” value in data set [3] (72 hr coculture) was “decreased”. Further, the “SMAD2 in CD14high/CD16+/CD163high/CD86high subtype” value in data set [3] (72 hr coculture) is “down-regulated”. Besides, the “SLUG transcription factor levels” value in the data set on A549 and H2009 cells is “significantly decreased”. In data set [4], the tolerability in patients result was “well tolerated”. The “IL-11 expression (RNA-seq)” value in the data set with A549 cells [5] is given as “down-regulated significantly”; in the data set on A549 cells [5] (listed as TP0903), “markedly downregulated”.

The values above are taken from US20220308062A1, “METHODS FOR PREDICTING DRUG RESPONSIVENESS IN SAMPLES FROM CANCER SUBJECTS” (Board of Regents, The University of Texas System, priority 2019, published 2022).
